Four molecules from patent publication US11111264B2, “Morphic forms of 4-amino-7-(3,4-dihydroxy-5-(hydroxymethyl)tetrahydrofuran-2-yl)-2-methyl-7H-pyrrolo[2,3-d]pyrimidine-5-carboxamide and uses thereof” (Chimerix, Inc., priority 2017, dated 2021) can be followed below.

Common to all, as to type: physicochemical
Data set [1] can be described thus: Dynamic vapor sorption (DVS). The following applies: 25° C.; for crystal form after DVS (PXRD): 50% to 0% to 95% to 50% relative humidity; for hygroscopicity (from DVS): mass as a function of relative humidity. An excerpt: FIG. 20A is a DVS diagram of a sample of Compound 1, Form A as a function of time and the applied change in relative humidity. Line A represents the relative weight of the sample at each relative humidity. Line B represents the applied relative humidity (i.e., the applied measurement program). FIG. 20B is a DVS diagram of a sample of Compound 1, Form A as a function of the applied relative humidity. FIG. 20A and FIG. 20B were obtained using a Sorptions Prufsystem ProUmid system using a scan rate of 5% relative humidity per hour at a temperature of 25° C.
DVS measurements were performed with an SPS11-100n “Sorptions Prufsystem” of Projekt Messtechnik”, D-89077 Ulm (Germany). About 20 to 100 mg of sample were put into an aluminum sample pan. Humidity change rates of 5% per hour were used. The applied measurement program is visualized in the figures.

Data set [2] in a line: Thermodynamic stability: stirring a mixture of Forms A-G in solvent/water, PXRD. The following applies: for PXRD after stirring mixture of Forms A, B, C, D, E, F and G: four days at room temperature. An excerpt: A mixture of Compound 1, Forms A, B, C, D, E, F and G was stirred in DMF/water 1:1 v/v (water activity about 0.79).
A mixture of Compound 1, Forms A, B, C, D, E, F and G was stirred in methanol/water 95:5 v/v (water activity about 0.18).

Data set [3] is described as follows: Suspension equilibration of Compound 1, Form A in organic solvents. The procedure:
Compound 1, Form A was stirred in methanol at room temperature for six days. […] At least 90% of Form A was still present.
Additionally, Compound 1, Form A was stirred in acetonitrile at a temperature ranging between 52° C. and 75° C. for five days.

Some results are limits rather than exact numbers.

As for `Cc1nc(N)c2c(C(N)=O)cn([C@@H]3O[C@H](CO)[C@@H](O)[C@H]3O)c2n1` [Form D, 4-amino-7-((2R,3R,4S,5R)-3,4-dihydroxy-5-(hydroxymethyl)tetrahydrofuran-2-yl)-2-methyl-7H-pyrrolo[2,3-d]pyrimidine-5-carboxamide], in data set [1], the “crystal form after DVS (PXRD)” value was “remained as Form D” and the “hygroscopicity (from DVS)” value is “hygroscopic”.

For the molecule `Cc1nc(N)c2c(C(N)=O)cn([C@@H]3O[C@H](CO)[C@@H](O)[C@H]3O)c2n1` [Form A, 4-amino-7-((2R,3R,4S,5R)-3,4-dihydroxy-5-(hydroxymethyl)tetrahydrofuran-2-yl)-2-methyl-7H-pyrrolo[2,3-d]pyrimidine-5-carboxamide], the “desorption of water (DVS)” value in data set [1] (0% R.H., 5% relative humidity per hour) is not above 0.1 % m/m. The “crystal form after DVS (PXRD)” value in data set [1] was “same pattern as the sample before DVS”. Besides, the “hygroscopicity (from DVS)” value in data set [1] is “non-hygroscopic”. Further, the “PXRD after stirring mixture of Forms A, B, C, D, E, F and G” value in data set [2] (DMF/water 1:1 v/v (water activity about 0.79)) and in data set [2] (methanol/water 95:5 v/v (water activity about 0.18)) was “only the peaks of crystal form A” throughout. Also, the “relative thermodynamic stability among the seven morphic forms” value in data set [2] (conclusion from both slurry experiments) is “most thermodynamically stable”. Further, the “resulting crystalline material (PXRD)” value in data set [3] (stirred in acetonitrile between 52° C. and 75° C. for five days) is listed as “PXRD pattern similar to Compound 1, Form D”. The “Form A still present (PXRD)” value in data set [3] (stirred in methanol at room temperature for six days) is “At least 90%”.

Turning to `Cc1nc(N)c2c(C(N)=O)cn([C@@H]3O[C@H](CO)[C@@H](O)[C@H]3O)c2n1` [Form E, 4-amino-7-((2R,3R,4S,5R)-3,4-dihydroxy-5-(hydroxymethyl)tetrahydrofuran-2-yl)-2-methyl-7H-pyrrolo[2,3-d]pyrimidine-5-carboxamide], in data set [1], the “crystal form after DVS (PXRD)” value is listed as “transformed into Form A” and the “hygroscopicity (from DVS)” value is reported as “hygroscopic”.

Consider `Cc1nc(N)c2c(C(N)=O)cn([C@@H]3O[C@H](CO)[C@@H](O)[C@H]3O)c2n1` [Form B, 4-amino-7-((2R,3R,4S,5R)-3,4-dihydroxy-5-(hydroxymethyl)tetrahydrofuran-2-yl)-2-methyl-7H-pyrrolo[2,3-d]pyrimidine-5-carboxamide], for which, in data set [1], the “crystal form after DVS (PXRD)” value is on record as “transform in to Form A” and the “hygroscopicity (from DVS)” value is reported as “hygroscopic”.
